Assay results reported in patent US6528043B2, “Composition containing sapogenin” (L'Oreal, priority 1999, dated 2003).

Assay: Maximum amount of diosgenin which can be dissolved at 50° C. (procedure repeated, varying the amount of diosgenin)
Type: physicochemical
Protocol: The above compositions were prepared in the following way. 100 mg of diosgenin were weighed out and placed in a hermetic pillbox, to which 4.9 g of the solvent(s) were added with magnetic stirring at 25° C. for not more than one hour. In the event that the diosgenin was not dissolved after one hour, the suspension was heated with stirring to 50° C. on a waterbath and then, in the absence of dissolution of the diosgenin after one hour at this temperature, the temperature of the suspension was raised to 70° C.
The above procedure was repeated, varying the amount of diosgenin placed in solution. It was thus shown that the maximum amount of diosgenin which can be dissolved at 50° C. in the mixture of solvents was 2%, whereas it was only 1% in each of the solvents taken individually.
The above procedure was repeated, varying the amount of diosgenin placed in solution. It was thus shown that the maximum amount of diosgenin which can be dissolved at 50° C. in the mixture of solvents was 4%, whereas it was only 1% in each of the solvents taken individually.
The above procedure was repeated, varying the amount of diosgenin placed in solution. It was thus shown that the maximum amount of diosgenin which can be dissolved at 50° C. in the mixture of solvents was 3%, whereas it was only 1% in each of the solvents taken individually.
The amount of diosgenin placed in solution was then varied. It was thus shown that the maximum amount of diosgenin which can be dissolved at 50° C. in the mixture of solvents was 3%, whereas it was only 1% in the ester and 2% in the UV screening agent.

maximum amount of diosgenin which can be dissolved (50/50 mixture of isononyl isononanoate and hexyldecanol): 3%
maximum amount of diosgenin which can be dissolved (50/50 mixture of isononyl isononanoate and octyl methoxycinnamate): 3%
maximum amount of diosgenin which can be dissolved (50/50 mixture of isopropyl myristate and hexyldecanol): 4%
maximum amount of diosgenin which can be dissolved (50/50 mixture of triglyceryl triisostearate and hexyldecanol): 2%
maximum amount of diosgenin which can be dissolved (hexyldecanol taken individually): 1%
maximum amount of diosgenin which can be dissolved (isononyl isononanoate (ester) alone): 1%
maximum amount of diosgenin which can be dissolved (isopropyl myristate taken individually): 1%
maximum amount of diosgenin which can be dissolved (octyl methoxycinnamate (UV screening agent) alone): 2%
maximum amount of diosgenin which can be dissolved (triglyceryl triisostearate taken individually): 1%
Compound: C[C@@H]1CC[C@@]2(OC1)O[C@H]1C[C@H]3[C@@H]4CC=C5C[C@@H](O)CC[C@]5(C)[C@H]4CC[C@]3(C)[C@H]1[C@@H]2C [diosgenin, spirost-5-en-3-beta-ol]
